One assay deals with T1, full-length human Mineralocorticoid Receptor (MR) (Homo sapiens, UniProt P08235).
T1 construct: host or cells: PathHunter CHO-K1 cells
T1 sequence (P08235 1-984): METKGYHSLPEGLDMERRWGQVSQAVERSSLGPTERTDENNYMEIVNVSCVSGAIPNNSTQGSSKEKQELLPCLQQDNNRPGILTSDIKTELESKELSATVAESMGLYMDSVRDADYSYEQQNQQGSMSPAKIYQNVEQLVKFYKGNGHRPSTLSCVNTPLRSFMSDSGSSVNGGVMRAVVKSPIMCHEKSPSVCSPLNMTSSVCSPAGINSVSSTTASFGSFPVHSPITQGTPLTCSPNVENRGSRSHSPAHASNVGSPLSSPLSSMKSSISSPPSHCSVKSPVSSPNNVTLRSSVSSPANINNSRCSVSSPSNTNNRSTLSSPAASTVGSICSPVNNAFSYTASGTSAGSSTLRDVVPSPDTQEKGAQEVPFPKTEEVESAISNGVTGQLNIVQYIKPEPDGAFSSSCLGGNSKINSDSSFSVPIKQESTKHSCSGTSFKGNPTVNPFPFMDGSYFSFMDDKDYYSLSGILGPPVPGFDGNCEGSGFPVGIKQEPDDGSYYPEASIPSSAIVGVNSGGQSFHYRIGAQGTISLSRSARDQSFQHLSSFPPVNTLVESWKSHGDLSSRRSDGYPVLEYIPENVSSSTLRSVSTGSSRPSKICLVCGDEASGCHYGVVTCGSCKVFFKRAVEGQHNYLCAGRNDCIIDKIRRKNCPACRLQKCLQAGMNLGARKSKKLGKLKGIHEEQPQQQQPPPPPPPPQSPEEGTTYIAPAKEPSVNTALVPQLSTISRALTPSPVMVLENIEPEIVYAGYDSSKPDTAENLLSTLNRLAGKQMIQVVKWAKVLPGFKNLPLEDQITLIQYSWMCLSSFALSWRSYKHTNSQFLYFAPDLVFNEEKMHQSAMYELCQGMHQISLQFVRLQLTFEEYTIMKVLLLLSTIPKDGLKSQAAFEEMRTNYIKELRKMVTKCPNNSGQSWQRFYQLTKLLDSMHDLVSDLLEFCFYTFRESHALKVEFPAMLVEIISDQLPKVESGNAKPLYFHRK
In words: human MR NH Pro assay (PathHunter Protein:Protein interaction assay), MR antagonist activity. The class given is cell-based.
Conditions: not given
From the text: The activity of the compounds of the present invention regarding mineralocorticoid receptor antagonism can be evaluated using the following assay.
Assessment of MR Potency in HMR NH Pro Assay
The human MR NH Pro assay is a commercially available PathHunter™ Protein:Protein interaction assay (DiscoveRx; http://www.discoverx.com/nhrs/prod-nhrs.php) that measures the ability of compounds to antagonize full-length human Mineralocorticoid Receptor (MR) binding to a coactivator peptide.
6. Test compounds are titrated starting at 4.4 mM, 10-point titration in 1:3 dilution.
3. Add 5 μL 6× agonist (final aldosterone concentration should be about 0.3 nM to about 1.0 nM) to all wells (using the PlateMate Plus.)
• (ThermoFisher) (except those wells in columns 23 and 24) 4. Add 5 uL of assay media to all wells in column 23 and 24. 5. Incubate 6 hrs at 37° C., 5% CO2. 6. Add 15 uL 3× DiscoveRx detection reagent to each well. 7. Incubate 1 hour at room temperature (keep plates stored in the dark). 8. Read plates on Envision (PerkinElmer) luminesence plate reader and analyze using ADA.
For the compound `CCC(C(=O)NCCCl)(c1ccc(Cl)cc1)n1ccc2c(NS(C)(=O)=O)cccc21` (single isomer, unassigned) [Compound 148, N-(2-chloroethyl)-2-(4-chlorophenyl)-2-(4-(methylsulfonamido)-1H-indol-1-yl)butanamide], the IC50 was in the range of 100 to 500 nM.

Staying with this assay, now noted: PathHunter CHO-K1 cells overexpressing human MR; aldosterone about 0.3 nM; 6 hours at 37° C.; luminescence; read-out: Primary Assay IP rating (IP = inflection point for a given dose-response titration curve).
For the compound `CC[C@@](c1ccc(Cl)cc1)(c1noc(-c2ccc(OC)cc2)n1)n1ccc2c(NS(C)(=O)=O)cccc21` [Compound 61, (R)—N-(1-{1-(4-chlorophenyl)-1-[5-(4-methoxyphenyl)-1,2,4-oxadiazol-3-yl]propyl}-1H-indol-4-yl)methanesulfonamide], the IC50 is less than 100 nM.
As to `CCC(/C=C/C#N)(c1ccc(Cl)cc1)n1ncc2c(N)cccc21` (stereo not shown) [Compound 133, (E)-4-(4-amino-1H-indazol-1-yl)-4-(4-chlorophenyl)hex-2-enenitrile], the IC50 is 100 to 500 nM.
For the compound `CCC(CCC(=O)OC)(c1ccc(Cl)cc1)n1ncc2c(NS(C)(=O)=O)cccc21` (stereo not shown) [Compound 168, methyl 4-(4-chlorophenyl)-4-(4-(methylsulfonamido)-1H-indazol-1-yl)hexanoate], the IC50 was less than 100 nM.
Turning to `CCC(CCCO)(c1ccc(Cl)cc1)n1ccc2c(NS(C)(=O)=O)cccc21` (stereo not shown) [Compound 169, N-(1-(3-(4-chlorophenyl)-6-hydroxyhexan-3-yl)-1H-indol-4-yl)methanesulfonamide], the IC50 was less than 100 nM.
On to `CCC(c1ccc(Cl)cc1)(C(C)O)n1ncc2c(NS(=O)(=O)N(C)C)cccc21` (stereo not shown) [Compound 119, 3-(1-(3-(4-chlorophenyl)-2-hydroxypentan-3-yl)-1H-indazol-4-yl)-1,1-dimethyl-sulfonylurea], for which the IC50 was less than 100 nM.
On to `CCC(C(=O)CC#N)(c1ccc(Cl)cc1)n1ccc2c(NS(C)(=O)=O)cccc21` (single isomer, unassigned) [Compound 146, N-(1-(3-(4-Chlorophenyl)-1-cyano-2-oxopentan-3-yl)-1H-indol-4-yl)methanesulfonamide], for which the IC50 was less than 100 nM.
With `CCC(c1ccc(Cl)cc1)(c1nc(-c2ccccc2)co1)n1ccc2c(NS(C)(=O)=O)cccc21` (stereo not shown) [Compound 77, N-{1-[1-(4-chlorophenyl)-1-(4-phenyl-1,3-oxazol-2-yl)propyl]-1H-indol-4-yl}methanesulfonamide], the IC50 fell in the range of 500 to 5000 nM.
For the compound `CNC(=O)C(CC#N)(c1ccc(Cl)cc1)n1ccc2c(NS(C)(=O)=O)cccc21` (stereo not shown) [Compound 53, 2-(4-chlorophenyl)-3-cyano-N-methyl-2-{4-[(methylsulfonyl)amino]-1H-indol-1-yl}propanamide], the IC50 lay in the range of 100 to 500 nM.
The same measure, in the same setting: to `CCC(CO)(c1ccc(Cl)cc1Cl)n1ccc2c(NS(C)(=O)=O)cccc21` (stereo not shown) [Compound 87, N-(1-(2-(2,4-dichlorophenyl)-1-hydroxybutan-2-yl)-1H-indol-4-yl)methane sulfonamide] belongs 100 to 500 nM; to `COC(=O)C(C)(c1ccc(Cl)cc1Cl)n1ccc2c(NS(C)(=O)=O)cccc21` (stereo not shown) [Compound 29, Methyl 2-(2,4-dichlorophenyl)-2-{4-[(methylsulfonyl)amino]-1H-indol-1-yl}propanoate], 500 to 5000 nM.
Take `CCC(c1ccc(C(F)(F)F)cc1)(C(C)O)n1ccc2c(NS(C)(=O)=O)cccc21` (single isomer, unassigned) [Compound 114, N-(1-(2-hydroxy-3-(4-(trifluoromethyl)phenyl)pentan-3-yl)-1H-indol-4-yl)methanesulfonamide]: the IC50 was less than 100 nM.
Still for that read-out and setting: to `CCC(CCC(=O)OC)(c1ccc(Cl)cc1)n1ccc2c(NS(C)(=O)=O)cccc21` (stereo not shown) [Compound 167, Methyl 4-(4-chlorophenyl)-4-(4-(methylsulfonamido)-1H-indol-1-yl)hexanoate] belongs less than 100 nM.
For `COC(=O)C(CCF)(c1ccc(Cl)cc1)n1ccc2c(NS(C)(=O)=O)cccc21` (stereo not shown) [Compound 156, methyl 2-(4-chlorophenyl)-4-fluoro-2-(4-(methylsulfonamido)-1H-indol-1-yl)butanoate], the IC50 is less than 100 nM.
Regarding `CCC(C(=O)NCCC#N)(c1ccc(Cl)cc1)n1ccc2c(NS(C)(=O)=O)cccc21` (stereo not shown) [Compound 48, 2-(4-chlorophenyl)-N-(2-cyanoethyl)-2-{4-[(methylsulfonyl)amino]-1H-indol-1-yl}butanamide], the IC50 is 500 to 5000 nM.
With `CCC(c1ccc(Cl)cc1)(c1nnc(C)o1)n1ccc2c(NS(C)(=O)=O)cccc21` (stereo not shown) [Compound 68, N-{1-[1-(4-chlorophenyl)-1-(5-methyl-1,3,4-oxadiazol-2-yl)propyl]-1H-indol-4-yl}methanesulfonamide], the IC50 lay in the range of 100 to 500 nM.
Turning to `CCC(c1ccc(Cl)cc1)(C(C)O)n1ccc2c(NS(C)(=O)=O)cccc21` (single isomer, unassigned) [Compound 108, N-(1-(3-(4-chlorophenyl)-2-hydroxypentan-3-yl)-1H-indol-4-yl)methanesulfonamide], the IC50 was less than 100 nM.
For the compound `CCC(c1ccc(Cl)cc1)(c1nnc(-c2ccc(Cl)cc2)o1)n1ccc2c(NS(C)(=O)=O)cccc21` (stereo not shown) [Compound 71, N-(1-{1-(4-chlorophenyl)-1-[5-(4-chlorophenyl)-1,3,4-oxadiazol-2-yl]propyl}-1H-indol-4-yl)methanesulfonamide], the IC50 is less than 100 nM.
Take `COC(=O)C(c1ccc(Cl)cc1Cl)n1ccc2c([N+](=O)[O-])cccc21` (stereo not shown) [Compound 3, methyl (2,4-dichlorophenyl)(4-nitro-1H-indol-1-yl)acetate]: the IC50 fell in the range of 100 to 500 nM.
With `CCC(/C=C/C#N)(c1ccc(Cl)cc1)n1ncc2c(N(S(C)(=O)=O)S(C)(=O)=O)cc(F)cc21` (stereo not shown) [Compound 136, (E)-N-(1-(3-(4-chlorophenyl)-1-cyanopent-1-en-3-yl)-6-fluoro-1H-indazol-4-yl)-N-(methylsulfonyl)methanesulfonamide], the IC50 is less than 100 nM.
For `CCC(c1ccc(Cl)cc1)(c1nnc(-c2ccccc2)o1)n1ccc2c(NS(C)(=O)=O)cccc21` (stereo not shown) [Compound 70, N-{1-[1-(4-chlorophenyl)-1-(5-phenyl-1,3,4-oxadiazol-2-yl)propyl]-1H-indol-4-yl}methanesulfonamide], the IC50 lay within 500 to 5000 nM.
Take `C=CC(CC)(c1ccc(Cl)cc1)n1ccc2c(NS(C)(=O)=O)cccc21` (stereo not shown) [Compound 175, N-(1-(3-(4-chlorophenyl)pent-1-en-3-yl)-1H-indol-4-yl)methanesulfonamide]: the IC50 was in the range of 100 to 500 nM.
`CCC(C(=O)OC)(c1ccc(Cl)cc1)n1ncc2c(NS(C)(=O)=O)cccc21` (stereo not shown) [Compound 32, Methyl 2-(4-chlorophenyl)-2-{4-[(methylsulfonyl)amino]-1H-indazol-1-yl}butanoate]: the IC50 lay in the range of 100 to 500 nM.
For `CCn1ncc(C(CC)(c2ccc(Cl)cc2)n2ccc3c(NS(C)(=O)=O)cccc32)n1` (stereo not shown) [Compound 152, N-(1-(1-(4-chlorophenyl)-1-(2-ethyl-2H-1,2,3-triazol-4-yl)propyl)-1H-indol-4-yl)methanesulfonamide], the IC50 was less than 100 nM.
Same read-out and setting: as for `COC(=O)C(c1ccc(F)cc1Cl)n1ccc2cc(F)ccc21` (stereo not shown) [Compound 13, methyl (2-chloro-4-fluorophenyl)(5-fluoro-1H-indol-1-yl)acetate], the figure is 500 to 5000 nM.
Turning to `CCC(CCOS(C)(=O)=O)(c1ccc(Cl)cc1)n1ccc2c(NS(C)(=O)=O)cccc21` (stereo not shown) [Compound 164, 3-(4-Chlorophenyl)-3-(4-(methylsulfonamido)-1H-indol-1-yl)pentyl methanesulfonate], the IC50 is less than 100 nM.
Still for that read-out and setting: to `CCc1noc(C(CC)(c2ccc(Cl)cc2)n2ccc3c(NS(C)(=O)=O)cccc32)n1` (single isomer, unassigned) [Compound 151, N-(1-(1-(4-chlorophenyl)-1-(3-ethyl-1,2,4-oxadiazol-5-yl)propyl)-1H-indol-4-yl)methanesulfonamide] belongs less than 100 nM; to `COC(=O)C(c1ccc(F)cc1Cl)n1ccc2cc(C#N)ccc21` (stereo not shown) [Compound 11, methyl (2-chloro-4-fluorophenyl)(5-cyano-1H-indol-1-yl)acetate], 500 to 5000 nM.
